In patent publication US20070276034A1, “Compounds, compositions and methods for the treatment of synucleinopathies” (priority 2002, published 2007):
Read-outs that look alike come from different tables or passages of the source. Blank lines part the entries; values can stand above or below the compound they belong to.

Columns and labels:
Format in all cases: biochemical
Aβ 1-42 fibrils = target: T1, Aβ 1-42 fibrils (Homo sapiens, UniProt P05067); assay: Thioflavin T fluorometry - disruption of pre-formed Aβ 1-42 Alzheimer's fibrils; conditions: 3 days; for inhibition / % Inhibition Aβ (result ± S.D.): 25 μM pre-fibrillized Aβ 1-42, 37° C.; for inhibition: read-out: % Inhibition Aβ (result ± S.D.)
T1 construct: purchased Bachem Inc
Summary of the method: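 Pre-fibrillized Aβ1-42 (25 µM) incubated 3 days at 37 °C alone or with compound at Aβ:compound weight ratios 1:1 to 1:0.001. Remaining fibrils quantified by Thioflavin T fluorescence (ex 444/em 485 nm) in phosphate buffer pH 6.8, blank-subtracted for buffer or compound alone.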

IAPP fibrils [1] = target: T2, IAPP fibrils (Homo sapiens, UniProt P10997); assay: Thioflavin T fluorometry - disruption of type 2 diabetes IAPP fibrils; conditions: 3 days; for inhibition / % Inhibition IAPP (result ± S.D.): 25 μM pre-fibrillized IAPP, 37° C.; for inhibition: read-out: % Inhibition IAPP (result ± S.D.)
T2 construct: purchased Bachem Inc
T2 sequence (P10997 34-70 limits assumed): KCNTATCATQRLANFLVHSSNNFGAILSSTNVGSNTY
Summary of the method: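 Pre-fibrillized human IAPP (25 μM) incubated 3 days at 37 °C alone or with compound at IAPP:compound weight ratios of 1:1 to 1:0.001. Mixtures then mixed with Thioflavin T in phosphate buffer pH 6.8; fluorescence read at 485 nm (ex 444 nm) after blank subtraction.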

IAPP fibrils [2] = target: T2, IAPP fibrils; assay: Congo red binding assay with IAPP fibrils; conditions: for % Inhibition IAPP (result ± S.D.), Congo red binding: 3-day incubation
Summary of the method: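 IAPP incubated 3 days with test compounds or EDTA at IAPP:compound weight ratios of 1:1, 1:0.1, 1:0.01 or 1:0.001, then vacuum-filtered (0.2 μm). Filter-retained IAPP stained with Congo red and washed; reduced staining versus IAPP without compound read as less aggregated, congophilic IAPP.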

NAC fibrils = target: T3, NAC fibrils (Homo sapiens, UniProt P37840); assay: Thioflavin T fluorometry - disruption of Parkinson's disease NAC fibrils; conditions: 3 days; for inhibition / % Inhibition NAC (result ± S.D.): 25 μM pre-fibrillized NAC, 37° C.; for inhibition: read-out: % Inhibition NAC (result ± S.D.); for disruption/disassembly of pre-formed NAC fibrils (in words): all concentrations tested (ratios 1:1 to 1:0.001)
T3 construct: NAC is a 35-amino acid fragment of α-synuclein; purchased Bachem Inc
Protocol: In this assay, Thioflavin T binds specifically to NAC fibrils, and this binding produces a fluorescence enhancement at 485 nm that is directly proportional to the amount of NAC fibrils present. The higher the fluorescence, the greater the amount of NAC fibrils present (Naki et al, Lab. Invest. 65:104-110, 1991; Levine III, Protein Sci. 2:404-410, 1993; Amyloid: Int. J. Exp. Clin. Invest. 2:1-6, 1995).
In this study, 25 μM of pre-fibrillized NAC (Bachem Inc) was incubated at 37° C. for 3 days either alone or in the presence of dihydroxy synthetic analog compounds #1, 3, 23, 26, 52, 63, 66, 67, or EDTA (at NAC:test compound weight ratios of 1:1, 1:0.1, 1:0.01 or 1:0.001). Following 3-days of co-incubation, 50 βl of each incubation mixture was transferred into a 96-well microtiter plate containing 150 μl of distilled water and 50 μl of a Thioflavin T solution (i.e. 500 mM Thioflavin T in 250 mM phosphate buffer, pH 6.8). The fluorescence was read at 485 nm (444 nm excitation wavelength) using an ELISA plate fluorometer after subtraction with buffer alone or compound alone, as blank.

[3] = Aβ:test compound wt/wt ratio 1:0.001
[4] = Aβ:test compound wt/wt ratio 1:0.01
[5] = Aβ:test compound wt/wt ratio 1:0.1
[6] = Aβ:test compound wt/wt ratio 1:1
[7] = IAPP:test compound wt/wt ratio 1:0.001
[8] = IAPP:test compound wt/wt ratio 1:0.01
[9] = IAPP:test compound wt/wt ratio 1:0.1
[10] = IAPP:test compound wt/wt ratio 1:1
[11] = NAC:test compound wt/wt ratio 1:0.001
[12] = NAC:test compound wt/wt ratio 1:0.01
[13] = NAC:test compound wt/wt ratio 1:0.1
[14] = NAC:test compound wt/wt ratio 1:1
[15] = all concentrations tested (ratios 1:1 to 1:0.001)

T1 sequence (P05067 672-713): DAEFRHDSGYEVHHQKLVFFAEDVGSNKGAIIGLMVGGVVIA

- inhibition (Aβ 1-42 fibrils; [3]): 13.7 ± 6.05%
- inhibition (Aβ 1-42 fibrils; [4]): 34 ± 14.1%
- inhibition (Aβ 1-42 fibrils; [5]): 50.9 ± 8.32%
- inhibition (Aβ 1-42 fibrils; [6]): 98.3 ± 2.19%
- inhibition (IAPP fibrils [1]; [7]): 16.1 ± 12.4%
- inhibition (IAPP fibrils [1]; [8]): 34.8 ± 1.87%
- inhibition (IAPP fibrils [1]; [9]): 81.4 ± 6.96%
- inhibition (IAPP fibrils [1]; [10]): 98.6 ± 0.22%
- % Inhibition IAPP (result ± S.D.), Congo red binding (IAPP fibrils [2]; [7]): 0.0 ± 3.45%
- % Inhibition IAPP (result ± S.D.), Congo red binding (IAPP fibrils [2]; [8]): 10.6 ± 1.29%
- % Inhibition IAPP (result ± S.D.), Congo red binding (IAPP fibrils [2]; [9]): 5.5 ± 2.52%
- % Inhibition IAPP (result ± S.D.), Congo red binding (IAPP fibrils [2]; [10]): 26.3 ± 2.76%
- inhibition (NAC fibrils; [11]): 11.9 ± 16%
- inhibition (NAC fibrils; [12]): 30.6 ± 5.75%
- inhibition (NAC fibrils; [13]): 50 ± 7.03%
- inhibition (NAC fibrils; [14]): 97.4 ± 1.19%
- disruption/disassembly of pre-formed NAC fibrils (in words) (NAC fibrils): dose-dependent disruption/disassembly
Structure (SMILES): O=C(CCC(=O)NCc1ccc(O)c(O)c1)NCc1ccc(O)c(O)c1 [Compound 67, succinic acid bis(3,4-dihydroxybenzylamide)]

Structure (SMILES): O=C(O)CN(CCN(CC(=O)O)CC(=O)O)CC(=O)O [EDTA, reference compound]
- % Inhibition Aβ (result ± S.D.) (Aβ 1-42 fibrils; [3]): 0.0 ± 3.01%
- % Inhibition Aβ (result ± S.D.) (Aβ 1-42 fibrils; [4]): 0.0 ± 4.88%
- % Inhibition Aβ (result ± S.D.) (Aβ 1-42 fibrils; [5]): 0.0 ± 7.12%
- % Inhibition Aβ (result ± S.D.) (Aβ 1-42 fibrils; [6]): 11.3 ± 9.67%
- disruption/disassembly of preformed Aβ 1-42 fibrils (in words) (Aβ 1-42 fibrils; [15]): no significant inhibition
- % Inhibition IAPP (result ± S.D.) (IAPP fibrils [1]; [7]): 4.2 ± 1.05%
- % Inhibition IAPP (result ± S.D.) (IAPP fibrils [1]; [8]): 0.0 ± 5.23%
- % Inhibition IAPP (result ± S.D.) (IAPP fibrils [1]; [9]): 0.1 ± 2.59%
- % Inhibition IAPP (result ± S.D.) (IAPP fibrils [1]; [10]): 4.4 ± 9.23%
- disruption/disassembly of pre-formed IAPP fibrils (in words) (IAPP fibrils [1]; [15]): no significant inhibition
- % Inhibition IAPP (result ± S.D.), Congo red binding (IAPP fibrils [2]; [7]): 6.6 ± 2.27%
- % Inhibition IAPP (result ± S.D.), Congo red binding (IAPP fibrils [2]; [8]): 3.6 ± 2.83%
- % Inhibition IAPP (result ± S.D.), Congo red binding (IAPP fibrils [2]; [9]): 0.0 ± 1.91%
- % Inhibition IAPP (result ± S.D.), Congo red binding (IAPP fibrils [2]; [10]): 0.0 ± 3.69%
- inhibition of IAPP fibril binding to Congo red (in words) (IAPP fibrils [2]; all concentrations tested (ratios 1:1 to 1:0.001), 3 days): no significant inhibition
- % Inhibition NAC (result ± S.D.) (NAC fibrils; [11]): 0.0 ± 11.6%
- % Inhibition NAC (result ± S.D.) (NAC fibrils; [12]): 0.0 ± 10.87%
- % Inhibition NAC (result ± S.D.) (NAC fibrils; [13]): 0.0 ± 5.87%
- % Inhibition NAC (result ± S.D.) (NAC fibrils; [14]): 20.0 ± 11.8%
- disruption/disassembly of pre-formed NAC fibrils (in words) (NAC fibrils): no significant inhibition
